In brackets after ≈: the same amount, converted by molar mass.
Columns and labels:
Reh = experiment: Cell cycle effects, DNA content by flow cytometry; format: cell-based; conditions: Brusatol (25 ng/ml), 24 h
Procedure: (§1) About 10^6 cells from each sample were collected and washed twice with ice-cold PBS, fixed in 70% ethanol, and stored at 4° C. until analysis. The cells were stained with PI (50 μg/ml), treated with DNase-free RNase (10 μg/ml), and subjected to DNA content analysis using an EPICS Coulter flow cytometer. At least 10,000 cells were counted for each sample. The percentage of apoptotic cells was calculated by measuring the area under the sub-diploid (DNA <2 N) peak in the plot of cell number against cellular DNA content.
(§2) Cells were treated with solvent or brusatol (25 ng/ml) for 24 h, fixed in ethanol and stained with PI for flow cytometric analysis as described under “Materials and methods”. At least 10,000 cells were counted. Results are presented as the mean of triplicate samples (±standard deviation). G1=Gap1, S=Synthesis, G2/M=Gap2+Mitosis, Ap=sub-G1 apoptotic peak.

SUPB13 = experiment: Cell cycle effects, DNA content by flow cytometry; format: cell-based; conditions: Brusatol (25 ng/ml), 24 h
Procedure: as §1, §2

Kasumi-1 = experiment: Cell cycle effects, DNA content by flow cytometry; format: cell-based; conditions: Brusatol (25 ng/ml), 24 h
Procedure: as §1, §2

BV173 = experiment: Cell cycle effects, DNA content by flow cytometry; format: cell-based; conditions: Brusatol (25 ng/ml), 24 h
Procedure: as §1, §2

NB4 [1] = experiment: Cell cycle effects, DNA content by flow cytometry; format: cell-based; conditions: Brusatol (25 ng/ml), 24 h
Procedure: as §1, §2

U937 [2] = experiment: Cell cycle effects, DNA content by flow cytometry; format: cell-based; conditions: Brusatol (25 ng/ml), 24 h
Procedure: as §1, §2

K562 [3] = experiment: Cell cycle effects, DNA content by flow cytometry; format: cell-based; conditions: Brusatol (25 ng/ml), 24 h
Procedure: as §1, §2

RS4,11 = experiment: Cell cycle effects, DNA content by flow cytometry; format: cell-based; conditions: Brusatol (25 ng/ml), 24 h
Procedure: as §1, §2

DHL-6 = experiment: Cytotoxicity, viability by Trypan blue exclusion; format: cell-based; conditions: for Cytotoxicity (IC50, ng/ml): DHL-6, four days
Excerpt: (§3) All cells were routinely tested for mycoplasma contamination.
(§4) Cellular viability was monitored by Trypan blue exclusion.

Daudi = experiment: Cytotoxicity, viability by Trypan blue exclusion; format: cell-based; conditions: for Cytotoxicity (IC50, ng/ml): Daudi, four days
Excerpt: as §3, §4

[4] = Cytotoxicity, viability by Trypan blue exclusion; format: cell-based; conditions: human, NB4; four days; read-out: Cytotoxicity (IC50, ng/ml)
Excerpt: as §3, §4

NB4 [5] = experiment: Cytotoxicity, viability by Trypan blue exclusion; format: cell-based
Excerpt: as §3, §4

K562 [6] = experiment: NBT-reduction differentiation assay, leukemic panel; format: cell-based; conditions: 4 days
Procedure: Cell lines were tested using a 4-day incubation protocol, unless otherwise specified.
2) NBT/NSE/SE. Evaluation of NBT reduction was used to assess the ability of sample-treated cells to produce superoxide when challenged with TPA. A 1:1 (v/v) mixture of a cell suspension (10^6 cells) and TPA/NBT solution (2 mg/ml NBT and 1 μg/ml TPA in phosphate buffer saline (PBS)) was incubated for 1 h at 37° C. Then, cells were smeared on glass slides, and counterstained with 0.3% (w/v) safranin O in methanol. Positive cells reduce NBT yielding intracellular black-blue formazan deposits. NSE/SE are monocytic/granulocytic esterases that can be visualized by cytochemical staining using commercially available kits (α-Naphthyl Acetate Esterase and Naphthol As-D Chloroacetate Esterase kits, Sigma Chemical Co., St. Louis, Mo.). Positive-stained cells were quantified by microscopic examination of >200 cells. Results were expressed as a percentage of positive cells.
Concentration-dependent effect of brusatol on: (a) NBT-reduction (monocyte/granulocyte marker) of HL-60, K562, NB4, U937, and BV173 and (b) NSE expression (monocyte marker) in K562, Kasumi-1, NB4, and BV173 cells, respectively. Data points are the mean of duplicate samples.

HL-60 cells = experiment: Withdrawal assays, growth and differentiation of HL-60 cells; format: cell-based, human; conditions: 12.5 ng/ml
Procedure: (§5) The irreversibility of brusatol effects on growth and differentiation of HL-60 cells was tested using withdrawal assays during a 4-day experiment.
(§6) The assay lasted for 4 days (96 h) and then, cells were analyzed for viability and differentiation markers. […] Results are shown as the mean of duplicate samples (±standard deviation).

[7] = as above; format: cell-based, human; conditions: human, HL-60 cells
Procedure: as §5, §6

[8] = Cytotoxicity, viability by Trypan blue exclusion; conditions: human, U937 cells, Cytotoxicity (IC50, ng/ml), four days
Procedure: (§7) HL-60, K562, U937, Reh and Daudi cells were obtained from the American Type Culture Collection (Rockville, Md.). Kasumi-1, NB4, BV173, SUPB13, and RS4;11 cells were provided by the Section of Hematology/Oncology, University of Illinois College of Medicine, Chicago, Ill. All cell lines were maintained in suspension culture using RPMI 1640 medium supplemented with 10% heat-inactivated fetal bovine serum, 100 units of penicillin/ml and 100 μg of streptomycin/ml at 37° C. in a humidified atmosphere of 5% CO2 in air. All cells were routinely tested for mycoplasma contamination.
(§8) Cellular viability was monitored by Trypan blue exclusion. Inhibition of [3H]thymidine incorporation into DNA was determined to assess the level of cell proliferation as well as DNA synthesis inhibition. […] The filters were counted using a Microbeta™ liquid scintillation counter (Wallac, Turku, Finland) with scintillation fluid. Finally, the percentage of [3H]thymidine incorporation per 10^6 cells was calculated by dividing the dpm of sample-treated cells by the dpm of DMSO-treated cells.
(§9) ^aViability was determined by Trypan blue exclusion in duplicate samples. […] Results are expressed as median inhibitory cell concentrations of two independent experiments (±standard deviations).

U937 [9] = experiment: Cytotoxicity, viability by Trypan blue exclusion; conditions: four days
Procedure: as §7, §8, §9

in vitro = conditions: human
Procedure: as §7
Cellular viability was monitored by Trypan blue exclusion. Inhibition of [3H]thymidine incorporation into DNA was determined to assess the level of cell proliferation as well as DNA synthesis inhibition. Cells were treated with test samples for four days and then placed into 96-well plates (100 μl) and treated with [3H]thymidine (0.5 μCi/ml, 65 Ci/mmol) for 18 h at 37° C. in a 5% CO2 incubator. Cells then were collected on glass fiber filters using a TOMTEC Harvester 96®. The filters were counted using a Microbeta™ liquid scintillation counter (Wallac, Turku, Finland) with scintillation fluid. Finally, the percentage of [3H]thymidine incorporation per 10^6 cells was calculated by dividing the dpm of sample-treated cells by the dpm of DMSO-treated cells.
as §9

SMILES: COC(=O)[C@@]12OC[C@]34[C@H]([C@@H](O)[C@@H]1O)[C@@]1(C)CC(=O)C(O)=C(C)[C@@H]1C[C@H]3OC(=O)[C@H](OC(=O)C=C(C)C)[C@@H]24 [compound 1, brusatol]
- G1 (Reh): G1 = 78.8 ± 1.2
- G2/M (Reh): G2/M= 3.2 ± 0.4
- S (Reh): S = 18.0 ± 0.6
- G1 (SUPB13): G1 = 61.9 ± 2.1
- G2/M (SUPB13): G2/M = 8.7 ± 0.3
- S (SUPB13): S = 29.4 ± 1.8
- G1 (Kasumi-1): G1 = 77.4 ± 1.8
- G2/M (Kasumi-1): G2/M = 4.5 ± 0.2
- S (Kasumi-1): S = 18.1 ± 2.1
- Ap (sub-G1 apoptotic peak) (BV173): Ap = 15.6 ± 0.2
- G1 (BV173): G1 = 57.0 ± 0.4
- G2/M (BV173): G2/M = 7.1 ± 0.1
- S (BV173): S = 35.9 ± 0.6
- Ap (sub-G1 apoptotic peak) (NB4 [1]): Ap = 37.2 ± 0.8
- G1 (NB4 [1]): G1 = 45.3 ± 0.8
- G2/M (NB4 [1]): G2/M = 7.3 ± 0.7
- S (NB4 [1]): S = 47.4 ± 0.1
- G1 (U937 [2]): G1 = 45.4 ± 1.8
- G2/M (U937 [2]): G2/M = 8.0 ± 1.6
- S (U937 [2]): S = 46.6 ± 0.2
- G1 (K562 [3]): G1 = 46.2 ± 0.6
- G2/M (K562 [3]): G2/M = 5.6 ± 0.4
- S (K562 [3]): S = 48.2 ± 0.3
- G1 (RS4,11): G1 = 50.9 ± 0.4
- G2/M (RS4,11): G2/M = 3.4 ± 0.1
- S (RS4,11): S = 45.7 ± 0.2
- Cytotoxicity (IC50, ng/ml) (DHL-6; listed as Brusatol): 5 ± 0.5 ng/mL
- Cytotoxicity (IC50, ng/ml) (DHL-6; listed as brusatol): less than 25 ng/ml
- cytotoxicity (DHL-6; human, 48 h, 25 ng/ml): 100%
- Cytotoxicity (IC50, ng/ml) (Daudi; listed as Brusatol): 5 ± 0.3 ng/mL
- Cytotoxicity (IC50, ng/ml) (Daudi; listed as brusatol): less than 25 ng/ml
- cytotoxicity (Daudi; human, 48 h, 25 ng/ml): 100%
- IC50 at 4 days [4]: < 25 ng/mL
- Cytotoxicity (IC50, ng/ml) (NB4 [5]; NB4, four days): 15 ± 0.2 ng/mL
- cytotoxicity (NB4 [5]; human, 48 h, 25 ng/ml): 100%
- NBT-reduction, peak induction (K562 [6]): 75%
- cells induced to differentiate (HL-60 cells; withdrawal after 48 h of exposure, 4-day experiment): 41%
- cells induced to differentiate (HL-60 cells; without withdrawal): 46%
- viability at 48 h, 12.5 ng/ml ([7]; 12.5 ng/ml, 48 h exposure): > 80%
- viability at 72 h, 12.5 ng/ml ([7]; 12.5 ng/ml, 72 h exposure): 56%
- viability at 96 h, 12.5 ng/ml ([7]; 12.5 ng/ml, 96 h exposure): 45%
- selectivity ratio ([7]; 2-day protocol versus 4-day protocol, read-out: increase in selectivity (differentiation vs cytotoxicity)): 10
- IC50 at 4 days ([7]; 4-day protocol, read-out: cytotoxic IC50): 0.025 µg/mL (≈ 0.048 µM)
- IC50 at 2 days ([7]; 2 day-protocol, read-out: cytotoxic IC50): 0.25 µg/mL (≈ 0.48 µM)
- IC50 at 4 days [8]: < 0.025 µg/mL
- Cytotoxicity (IC50, ng/ml) (U937 [9]): 12.5 ± 1.1 ng/mL

SMILES: COC(=O)[C@@]12OC[C@]34[C@H]([C@@H](O)[C@@H]1O)[C@@]1(C)CC(=O)C(O)=C(C)[C@@H]1C[C@H]3OC(=O)[C@H](OC(=O)/C=C(\C)C(C)C)[C@@H]24 [compound 2, bruceantin]
- IC50 at 4 days (in vitro): > 0.05 µg/mL

Source: patent publication US20020193425A1, “Cancer chemopreventative compounds and compositions and methods of treating cancers” (priority 2001, published 2002)
